Measured values as given in patent US20220305031A1, “METHODS FOR REDUCING TUMOR PROGRESSION AND FIBROSIS AND INCREASING ADAPTIVE IMMUNITY IN MALIGNANCIES” (GEORGETOWN UNIVERSITY, priority 2019, published 2022).

Tests used:
Assay type in all cases: in vivo
NeuT/ATTAC mice [1] = experiment: Tumor development and multiplicity in AP-treated NeuT/ATTAC mice on DMHCA diet; settings: diet with 0.05% DMHCA (~100 mg/kg/day)
Description: The derivation and characteristics of MMTV-PPARd mice was reported in Yuan et al., “PPARdelta Induces Estrogen Receptor-Positive Mammary Neoplasia Through an Inflammatory and Metabolic Phenotype Linked to mTOR Activation,” Cancer Res. 73(14):4349-4361 (2013), which is hereby incorporated by reference in its entirety. […] FAT-ATTAC mice on a C57BL/6 background (Pajvani et al., “Fat Apoptosis Through Targeted Activation of Caspase 8: A New Mouse Model of Inducible and Reversible Lipoatrophy,” Nat. Med. 11(7):797-803 (2005); Landskroner-Eiger et al., “Morphogenesis of the Developing Mammary Gland. Stage-Dependent Impact of Adipocytes,” Dev. Biol. 344(2):968-978 (2010), each of which is hereby incorporated by reference in its entirety) were crossed into the FVB strain for several generations. Derivation of NeuT/ATTAC mice was reported in Yuan et al., “MMTV-NeuT/ATTAC Mice: A New Model for Studying the Stromal Tumor Microenvironment,” Oncotarget. 9(8):8042-8053 (2018), which is hereby incorporated by reference in its entirety. All animals were fed LabDiet 5303 and monitored for the NeuT, PPARd, and/or FKBPv-caspase 8 transgenes by genotyping.
(§1) Fibrosis was induced in mice at 6 w.o.a. by weekly i.p. injections of 0.4 mg/kg AP dissolved in vehicle (4% ethanol, 10% PEG-400, and 1.75% Tween-20 in water). Mice were maintained on LabDiet 5053 chow supplemented with 0.05% DMHCA (100 mg/kg) beginning at 8 w.o.a. Control mice received the standard diet.
Statistical significance was evaluated using the Mantel-Cox log-rank test for survival analysis and Prism GraphPad software or the two-tailed Student's t test to evaluate differences between means at a significance of P<0.05.
A study was designed to evaluate whether DMHCA treatment could abrogate tumor development in NeuT/ATTAC mice treated with AP.

NeuT/ATTAC mice [2] = experiment: FACS analysis of immune cell subsets in tumor infiltrates and spleen
Protocol: as §1
To assess whether DMHCA treatment could reduce immune tolerance in NeuT/ATTAC mice, a model that is highly resistant to PD-1 immunotherapy, spleen and tumor immune infiltrates were analyzed by FACS (FIGS. 6A-6C).

[3] = system: tumors from NeuT/ATTAC mice; experiment: Immunohistochemistry of FFPE tumor sections
Protocol: as §1
Mammary tissue was excised and FFPE sections were prepared (Yuan et al., “MMTV-NeuT/ATTAC Mice: A New Model for Studying the Stromal Tumor Microenvironment,” Oncotarget. 9(8):8042-53 (2018); Yuan et al., “PPARdelta Induces Estrogen Receptor-Positive Mammary Neoplasia Through an Inflammatory and Metabolic Phenotype linked to mTOR Activation,” Cancer Res. 73(14):4349-4361 (2013); Yin et al., “Peroxisome Proliferator-Activated Receptor Delta and Gamma Agonists Differentially Alter Tumor Differentiation and Progression During Mammary Carcinogenesis,” Cancer Res. 65:3950-3957 (2005); Yin et al., “Inhibition of Peroxisome Proliferator-Activated Receptor Gamma Increases Estrogen Receptor-Dependent Tumor Specification,” Cancer Res. 69(2):687-694 (2009), each of which is hereby incorporated by reference in its entirety). Primary antibodies: PD-L1 (1:200, 17952-1-AP, Proteintech), SMA (1:100, sc130617, Santa Cruz), Ki67 (1:50, CRM325, Biocare), CD31 (1:100, ab56299, Abcam), CXCL1 (1:120, sc-1374, Santa Cruz), F4/80 (1:30, 14-4801-85, eBioscience), Foxp3 (1:50, 14-5773-82, e Bioscience), CD8a (1:40, 14-0808-82, eBioscience). Collagen was stained with Picrosirius Red stain (Yuan et al., “MMTV-NeuT/ATTAC Mice: A New Model for Studying the Stromal Tumor Microenvironment,” Oncotarget. 9(8):8042-53 (2018), which is hereby incorporated by reference in its entirety).

[4] = system: tumors from NeuT/ATTAC mice; experiment: FLIM and SHG microscopy of tumor sections; settings: DMHCA-treated tumor vs control tumor
Description: SHG imaging using a multiphoton microscope equipped with a Deep Imaging Via Emission Recovery (DIVER) detector (Crosignani et al., “Deep Tissue Fluorescence Imaging and in Vivo Biological Applications,” J. Biomed. Opt. 17(11):116023 (2012), which is hereby incorporated by reference in its entirety) can distinguish collagen accumulation in the early stages of fibrosis unlike standard histological analysis (Dvornikov & Gratton, “Imaging in Turbid Media: A Transmission Detector Gives 2-3 Order of Magnitude Enhanced Sensitivity Compared to Epi-Detection Schemes,” Biomed. Opt. Express 7:3747-755 (2016); Ranjit et al., “Label-Free Fluorescence Lifetime and Second Harmonic Generation Imaging Microscopy Improves Quantification of Experimental Renal Fibrosis,” Kidney Int. 90:1123-1128 (2016), each of which is hereby incorporated by reference in its entirety). DIVER, by virtue of detection in the direction of light propagation is especially suitable for SHG detection and a combination of SHG and FLIM enables spatial mapping of collagen I and III, which is important for fibrosis. Additionally, this type of imaging is applicable to unstained tissues, which eliminates the uncertainty from issues associated with labeling efficiency. Moreover, the same tissue can be used for other purposes after imaging is complete. […]

[5] = NeuT/ATTAC mice, DMHCA from two months of age

SMILES: C[C@H](CCC(=O)N(C)C)[C@H]1CC[C@H]2[C@@H]3CC=C4C[C@@H](O)CC[C@]4(C)[C@H]3CC[C@]12C [DMHCA, dimethyl-3-beta-hydroxy-cholenamide]
- tumor development (NeuT/ATTAC mice [1]; NeuT/ATTAC mice treated with AP, FIG. 5A): reduction in tumor development
- decrease in tumor multiplicity (NeuT/ATTAC mice [1]; NeuT/ATTAC mice treated with AP, FIG. 5B): 10 fold
- toxicity of dietary dose (NeuT/ATTAC mice [1]): nontoxic
- PD1+/Foxp3+ CD4+ T cells (NeuT/ATTAC mice [2]; [5]): increase
- CD4+ effector T cells (NeuT/ATTAC mice [2]; spleen, vs control): enhanced
- CD8+ effector T cells (NeuT/ATTAC mice [2]; spleen, vs control): enhanced
- G-MDSC (NeuT/ATTAC mice [2]; spleen, vs control): reduced
- Treg cells (NeuT/ATTAC mice [2]; spleen, vs control): markedly reduced
- CD4+ effector T cells (NeuT/ATTAC mice [2]; tumor infiltrates, vs control): increased
- CD8+ effector T cells (NeuT/ATTAC mice [2]; tumor infiltrates, vs control): increased
- G-MDSC (NeuT/ATTAC mice [2]; tumor infiltrates, vs control): reduced
- M-MDSC (NeuT/ATTAC mice [2]; tumor infiltrates, vs control): reduced
- Treg (NeuT/ATTAC mice [2]; tumor infiltrates, vs control): reduced
- CXCL1 expression ([3]; IHC of tumors, FIG. 7): reduced CXCL1 expression
- fibroblast activation protein expression [3, 5]: reduced
- smooth muscle actin expression [3, 5]: reduced
- collagen I & collagen III detected by FLIM ([4]; FIG. 8C-8D): little collagen
- collagen I by SHG microscopy ([4]; FIG. 8E-8G): markedly reduced
